Measured values: PubChem BioAssay AID1963960 (Molecular Pharmacology Branch, DTP, NCI, 2024)

Test system: MDA-MB-468 spheroids with HUVEC/MSC, viability
Experiment: Anticancer human tumor MDA-MB-468 cell line growth inhibition [PI3K];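 further: spheroids exposed to agents for seven days before readout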
Conditions: for IC50: curve of first compound; for viability, T/C: stronger effect = lower value; active means viability on the fitted dose curve at most 10% of control; inactive means the rest
Source text: Combinatorial screen of targeted agents with the PI3K inhibitors inavolisib, alpelisib, duvelisib, and copanlisib in multi-cell type tumor spheroids
A high-throughput screen of multi-cell type tumor spheroids was designed to identify active combinations of targeted small molecules and PI3K pathway inhibitors. Complex spheroids include a stromal component modeled by human endothelial cells (HUVEC) and fibroblasts modeled by human mesenchymal stem cells (MSCs). The concentration ranges selected for each drug and investigational agent were based upon clinically achievable concentrations if the clinical Cmax of the agent was known.
Compounds. The drugs and investigational agents: inavolisib (NSC800729), alpelisib (NSC765974), duvelisib (NSC772469), copanlisib (NSC816437), ipatasertib (NSC767898), afuresertib (NSC778305), talazoparib (NSC767125), sapanisertib (NSC764658), selumetinib (NSC741078), tovorafenib (DAY101, NSC766906), vemurafenib (NSC761431), ravoxertinib (NSC781343), sotorasib (NSC818433), MRTX1133 (NSC 836407), abemaciclib (NSC 768073), palbociclib (NSC758247), venetoclax (NSC 766270), SY5609 (NSC837396), enzalutamide (NSC755605), and darolutamide (NSC825331), were obtained from the National Cancer Institute (NCI) Developmental Therapeutics Program Chemical Repository. The FDA-approved anticancer drug set is available from the NCI Developmental Therapeutics Program. […] The stock solutions were prepared in dimethyl sulfoxide (DMSO, Sigma-Aldrich, St. Louis, MO, cat. D2650) at 800-fold the tested concentration and stored at -70 degrees C prior to their use. All drugs and investigational agents were tested over a range starting from a high concentration at or near the clinical Cmax and decreasing in half-log increments. If the clinical Cmax for an agent had not been determined, the highest concentration tested was 10 microM.
Cell Culture. All cells were maintained in an incubator at 37 degrees C and 5% CO2 with 95% humidity. The PDC lines were cultured according to standard operating procedures established by the NCI PDMR (https://pdmr.cancer.gov/sops/default.htm). All PDCs were thawed and cultured in Matrigel-coated flasks prepared with a working solution of 1X Ham's F-12 nutrient mix, without supplementation (Invitrogen, Waltham, MA, cat. 11765054), 100 U/mL penicillin-streptomycin (Invitrogen, cat. 15140122), and 2.5% Matrigel (Corning Inc., Corning, NY, cat. 354248) for the first three passages. The 354836-022-R-J1-PDC, 475296-252-R-J1-PDC, and 997726-040-R-J2-PDC lines were cultured in 6A media, which includes advanced DMEM/F-12 (Thermo Fisher Scientific, cat. 12634028), 10 mM HEPES (Thermo Fisher Scientific, cat. 15630080), 1X GlutaMAX supplement (Thermo Fisher Scientific, cat. 35050061), 0.1 mg/mL primocin (InvivoGen, San Diego, CA, cat. ant-pm-2), 10% defined fetal bovine serum, heat inactivated (HyClone Laboratories Inc., Logan, UT, cat. SH30070.03HI), 50% L-WRN conditioned media (ATCC, cat. CRL-3276), 1.25 mM N-Acetyl-L-cysteine (Sigma-Aldrich, cat. A9165), 10 mM nicotinamide (Sigma-Aldrich, cat. N0636), 1X B-27 supplement (Thermo Fisher Scientific, cat. 17504044), 1X N-2 supplement (Thermo Fisher Scientific, cat. 17502048), and 10 microM Y-27632 dihydrochloride (Tocris Bioscience, Bristol, United Kingdom, cat. 1254). The 624824-186-R-J2-PDC line was cultured in 6C/Colon 1B media, which includes all 6A media components plus 50 ng/mL human EGF recombinant protein (Thermo Fisher Scientific, cat. PHG0311). […]

[1] = second compound 0.00316 µM, first compound 0.0316 µM
[2] = second compound 0.00316 µM, first compound 0.1 µM
[3] = second compound 0.01 µM, first compound 0.0316 µM
[4] = second compound 0.01 µM, first compound 0.1 µM
[5] = second compound 0.0316 µM, first compound 0.0316 µM
[6] = second compound 0.0316 µM, first compound 0.1 µM
[7] = second compound 0.1 µM, first compound 0.0316 µM
[8] = second compound 0.1 µM, first compound 0.1 µM
[9] = second compound 0.316 µM, first compound 0.0316 µM
[10] = second compound 0.316 µM, first compound 0.1 µM
[11] = second compound 1 µM, first compound 0.0316 µM
[12] = second compound 1 µM, first compound 0.1 µM

CC(C)NCC(C(=O)N1CCN(c2ncnc3c2C(C)CC3O)CC1)c1ccc(Cl)cc1 (centres undefined) + CC(Nc1ccc2c(c1)OCCn1cc(N3C(=O)OCC3C(F)F)nc1-2)C(N)=O
311 nM: IC50 (second compound 1 µM)
678 nM: IC50 (second compound 0.316 µM)
576 nM: IC50 (second compound 0.1 µM)
1290 nM: IC50 (second compound 0.00316 µM)
749 nM: IC50 (second compound 0.0316 µM)
759 nM: IC50 (second compound 0.01 µM)
inactive: viability, T/C [1] 90.2% | viability, T/C [2] 91.3% | viability, T/C (second compound 0.00316 µM, first compound 0.316 µM) 72.5% | viability, T/C (second compound 0.00316 µM, first compound 1 µM) 60.1% | viability, T/C (second compound 0.00316 µM, first compound 3.16 µM) 27.5% | viability, T/C (second compound 0.00316 µM, first compound 10 µM) 25.5% | viability, T/C [3] 113% | viability, T/C [4] 88% | viability, T/C (second compound 0.01 µM, first compound 0.316 µM) 67.7% | viability, T/C (second compound 0.01 µM, first compound 1 µM) 45.8% | viability, T/C (second compound 0.01 µM, first compound 3.16 µM) 27.8% | viability, T/C (second compound 0.01 µM, first compound 10 µM) 23.7% | viability, T/C [5] 88.1% | viability, T/C [6] 85.5% | viability, T/C (second compound 0.0316 µM, first compound 0.316 µM) 65.6% | viability, T/C (second compound 0.0316 µM, first compound 1 µM) 45.1% | viability, T/C (second compound 0.0316 µM, first compound 3.16 µM) 29.5% | viability, T/C (second compound 0.0316 µM, first compound 10 µM) 24.4% | viability, T/C [7] 104% | viability, T/C [8] 83.6% | viability, T/C (second compound 0.1 µM, first compound 0.316 µM) 57.2% | viability, T/C (second compound 0.1 µM, first compound 1 µM) 45.1% | viability, T/C (second compound 0.1 µM, first compound 3.16 µM) 24.3% | viability, T/C (second compound 0.1 µM, first compound 10 µM) 21.4% | viability, T/C [9] 89.8% | viability, T/C [10] 81.3% | viability, T/C (second compound 0.316 µM, first compound 0.316 µM) 65.7% | viability, T/C (second compound 0.316 µM, first compound 1 µM) 42.5% | viability, T/C (second compound 0.316 µM, first compound 3.16 µM) 26.4% | viability, T/C (second compound 0.316 µM, first compound 10 µM) 22% | viability, T/C [11] 82.5% | viability, T/C [12] 65.3% | viability, T/C (second compound 1 µM, first compound 0.316 µM) 50.1% | viability, T/C (second compound 1 µM, first compound 1 µM) 37% | viability, T/C (second compound 1 µM, first compound 3.16 µM) 26.2% | viability, T/C (second compound 1 µM, first compound 10 µM) 21.2%

Cn1ncnc1[C@H]1c2n[nH]c(=O)c3cc(F)cc(c23)N[C@@H]1c1ccc(F)cc1 + CC(Nc1ccc2c(c1)OCCn1cc(N3C(=O)OCC3C(F)F)nc1-2)C(N)=O
42.4 nM: IC50 (second compound 0.316 µM)
> 100 nM: IC50 (second compound 0.00316 µM) | IC50 (second compound 0.01 µM) | IC50 (second compound 0.0316 µM)
inactive: viability, T/C (second compound 0.00316 µM, first compound 0.000316 µM) 93.1% | viability, T/C (second compound 0.00316 µM, first compound 0.001 µM) 87.6% | viability, T/C (second compound 0.00316 µM, first compound 0.00316 µM) 87.3% | viability, T/C (second compound 0.00316 µM, first compound 0.01 µM) 96.8% | viability, T/C [1] 72.2% | viability, T/C [2] 55.4% | viability, T/C (second compound 0.01 µM, first compound 0.000316 µM) 90% | viability, T/C (second compound 0.01 µM, first compound 0.001 µM) 99.3% | viability, T/C (second compound 0.01 µM, first compound 0.00316 µM) 81% | viability, T/C (second compound 0.01 µM, first compound 0.01 µM) 85.6% | viability, T/C [3] 76.3% | viability, T/C [4] 56.5% | viability, T/C (second compound 0.0316 µM, first compound 0.000316 µM) 107% | viability, T/C (second compound 0.0316 µM, first compound 0.001 µM) 88.9% | viability, T/C (second compound 0.0316 µM, first compound 0.00316 µM) 83% | viability, T/C (second compound 0.0316 µM, first compound 0.01 µM) 83.5% | viability, T/C [5] 74.5% | viability, T/C [6] 47.3% | viability, T/C (second compound 0.1 µM, first compound 0.000316 µM) 99.5% | viability, T/C (second compound 0.1 µM, first compound 0.001 µM) 77.4% | viability, T/C (second compound 0.1 µM, first compound 0.00316 µM) 72.4% | viability, T/C (second compound 0.1 µM, first compound 0.01 µM) 80.2% | viability, T/C [7] 75.6% | viability, T/C [8] 45.5% | viability, T/C (second compound 0.316 µM, first compound 0.000316 µM) 93.4% | viability, T/C (second compound 0.316 µM, first compound 0.001 µM) 73.6% | viability, T/C (second compound 0.316 µM, first compound 0.00316 µM) 73.9% | viability, T/C (second compound 0.316 µM, first compound 0.01 µM) 67.5% | viability, T/C [9] 52.4% | viability, T/C [10] 40.6% | viability, T/C (second compound 1 µM, first compound 0.000316 µM) 73.7% | viability, T/C (second compound 1 µM, first compound 0.001 µM) 73.4% | viability, T/C (second compound 1 µM, first compound 0.00316 µM) 68.7% | viability, T/C (second compound 1 µM, first compound 0.01 µM) 67% | viability, T/C [11] 56% | viability, T/C [12] 41.3%
51.6 nM: IC50 (second compound 1 µM)
86.2 nM: IC50 (second compound 0.1 µM)
